Where “and” joins values, the source holds several entries; their conditions need not be identical. Identical values can stand only once.

Test [1] has as its target T1, Thromboxane A2 receptor (Homo sapiens, UniProt P21731).
T1 sequence (P21731 whole entry): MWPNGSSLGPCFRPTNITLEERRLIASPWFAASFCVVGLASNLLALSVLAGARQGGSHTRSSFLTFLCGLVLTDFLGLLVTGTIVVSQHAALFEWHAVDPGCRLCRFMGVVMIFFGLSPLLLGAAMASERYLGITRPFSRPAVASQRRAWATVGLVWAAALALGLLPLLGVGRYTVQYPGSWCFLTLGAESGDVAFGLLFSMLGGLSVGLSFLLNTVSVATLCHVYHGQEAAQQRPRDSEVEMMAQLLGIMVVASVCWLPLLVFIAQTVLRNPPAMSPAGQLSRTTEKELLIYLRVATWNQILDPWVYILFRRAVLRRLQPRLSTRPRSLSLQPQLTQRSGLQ
Put plainly: In vitro thromboxane A2 receptor antagonism through inhibition of U-46619-induced platelet aggregation in human whole blood. The settings on record: read-out: pA2 (converted). In kind it is functional, tissue-based.

Test [2] deals with T2, Thromboxane A2 receptor (Rattus norvegicus, UniProt P34978).
T2 sequence (P34978 whole entry): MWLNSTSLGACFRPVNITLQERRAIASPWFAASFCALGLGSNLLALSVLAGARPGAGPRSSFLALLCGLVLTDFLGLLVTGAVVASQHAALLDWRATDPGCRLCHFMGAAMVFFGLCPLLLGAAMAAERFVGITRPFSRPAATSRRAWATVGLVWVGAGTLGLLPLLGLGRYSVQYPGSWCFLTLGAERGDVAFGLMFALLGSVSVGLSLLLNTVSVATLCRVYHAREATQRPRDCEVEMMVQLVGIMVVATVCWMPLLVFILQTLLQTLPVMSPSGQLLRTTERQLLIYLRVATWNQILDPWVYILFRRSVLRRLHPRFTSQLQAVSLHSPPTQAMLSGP
Briefly: In vitro thromboxane A2 receptor antagonism through inhibition of U-46619-induced contraction of rat isolated thoracic aortic strip. The settings on record: read-out: pA2 (converted). In kind it is functional.

Test [3] deals with T3, Thromboxane A2 receptor (Rattus norvegicus) (UniProt P34978).
T3 sequence (whole entry): T2 sequence (P34978 whole entry)
Put plainly: In vitro thromboxane receptor antagonism through inhibition of U-46619-induced contraction of rat isolated thoracic aortic strip. In kind it is functional.

For `O=C(O)CC/C=C\CO[C@H]1[C@@H](OCc2ccc(-c3ccc(CO)cc3)cc2)CC[C@@H]1N1CCCCCC1`, the values for the Kb in test [1] and in test [2] were 0.00398 µM and 0.0501 µM, respectively.
The corresponding values for `CS(=O)(=O)Nc1ccccc1-c1ccc(COC2CC[C@H](N3CCCCCC3)[C@H]2OC/C=C\CCC(=O)O)cc1` (stereo not given in full) are 0.01 µM and 0.00398 µM.
Consider `CS(=O)(=O)Nc1cccc(-c2ccc(COC3CC[C@H](N4CCCCCC4)[C@H]3OC/C=C\CCC(=O)O)cc2)c1` (stereo not given in full), for which the results for the Kb in test [1] and in test [2] were 0.0126 µM and 0.0501 µM, respectively.
The corresponding values for `O=C(O)CC/C=C\CO[C@@H]1C(OCc2ccc(-c3ccccc3)cc2)CC[C@@H]1N1CCCCC1` (stereo not given in full) are 0.0398 µM and 0.0158 µM.
The corresponding values for `O=C(O)CC/C=C\CO[C@H]1C(OCc2ccc(-c3ccccc3CO)cc2)CC[C@@H]1N1CCCCCC1` (stereo not given in full) are 0.00316 µM and 0.00631 µM.
Regarding `O=C(O)CC/C=C\CO[C@H]1[C@H](OCc2ccc(-c3ccccc3CO)cc2)CC[C@@H]1N1CCCCCC1`, the Kb in test [1] was 0.00631 µM. This molecule had a pKb in test [3] of 8.5.
On to `O=C(O)CC/C=C\CO[C@H]1[C@@H](OCc2ccc(-c3cccc(CO)c3)cc2)CC[C@@H]1N1CCCCCC1`, for which the Kb in test [1] is 0.00501 µM; in test [2], 0.0794 µM.
On to `O=C(O)CC/C=C\CO[C@H]1[C@@H](OCc2ccc(-c3ccccc3CO)cc2)CC[C@@H]1N1CCCCCC1`, for which the figures for the Kb in test [1] and in test [2] were 0.00158 µM and 0.0126 µM, respectively.
The corresponding values for `O=C(O)CC/C=C\CO[C@H]1C(OCc2ccc(-c3ccccc3O)cc2)CC[C@@H]1N1CCCCCC1` (stereo not given in full) are 0.0158 µM and 0.02 µM.
For `CNS(=O)(=O)Cc1ccccc1-c1ccc(COC2CC[C@H](N3CCCCCC3)[C@H]2OC/C=C\CCC(=O)O)cc1` (stereo not given in full), the Kb is 0.00794 µM in test [1] and 0.0126 µM in test [2].
The corresponding values for `O=C(O)CC/C=C\CO[C@H]1C(OCc2ccc(-c3ccccc3)cc2)CC[C@@H]1N1CCCCCC1` (stereo not given in full) are 0.0126 µM and 0.0251 µM.
The corresponding values for `NC(=O)Cc1ccccc1-c1ccc(COC2CC[C@H](N3CCCCCC3)[C@H]2OC/C=C\CCC(=O)O)cc1` (stereo not given in full) are 0.00794 µM and 0.158 µM.
Consider `O=C(O)CC/C=C\CO[C@H]1C(OCc2ccc(-c3ccccc3CCO)cc2)CC[C@@H]1N1CCCCCC1` (stereo not given in full), for which the Kb in test [1] is 0.002 µM; in test [2] it was 0.0316 µM.
For `O=C(O)CC/C=C\CO[C@H]1C(OCc2ccc(-c3cccc(CO)c3)cc2)CC[C@@H]1N1CCCCCC1` (stereo not given in full), in that order: 0.00794 µM and 0.0126 µM.
For `CC(=O)NCc1ccc(-c2ccc(COC3CC[C@H](N4CCCCCC4)[C@H]3OC/C=C\CCC(=O)O)cc2)cc1` (stereo not given in full), in that order: 0.00251 µM and 0.02 µM.
For `CNS(=O)(=O)Cc1ccc(-c2ccc(COC3CC[C@H](N4CCCCCC4)[C@H]3OC/C=C\CCC(=O)O)cc2)cc1` (stereo not given in full), in that order: 0.00316 µM and 0.0158 µM.
As to `CS(=O)(=O)Nc1ccccc1-c1ccc(CO[C@H]2CC[C@H](N3CCCCCC3)[C@H]2OC/C=C\CCC(=O)O)cc1`, the Kb was 0.00631 µM in test [1] and 0.0631 µM in test [2].
The corresponding values for `NC(=O)Cc1ccc(-c2ccc(COC3CC[C@H](N4CCCCCC4)[C@H]3OC/C=C\CCC(=O)O)cc2)cc1` (stereo not given in full) are 0.00398 µM and 0.02 µM.
For `NC(=O)c1ccc(-c2ccc(COC3CC[C@H](N4CCCCCC4)[C@H]3OC/C=C\CCC(=O)O)cc2)cc1` (stereo not given in full), in that order: 0.00316 µM and 0.02 µM.
Take `O=C(O)CC/C=C\CO[C@H]1C(OCc2ccc(-c3ccccc3)cc2)CC[C@@H]1N1CCCCC1` (stereo not given in full): in test [1], the Kb was 0.0631 µM and 0.0158 µM.
Consider `O=C(O)CC/C=C\CO[C@@H]1[C@@H](OCc2ccc(-c3ccccc3)cc2)CC[C@@H]1N1CCCCC1`, for which the figures for the Kb in test [1] and in test [2] were 0.1 µM and 1 µM, respectively.
As to `O=C(O)CC/C=C\CO[C@H]1C(OCc2ccc(-c3ccc(O)cc3)cc2)CC[C@@H]1N1CCCCCC1` (stereo not given in full), the Kb in test [1] and in test [2] was 0.00631 µM in each case.
For the molecule `NC(=O)c1ccccc1-c1ccc(COC2CC[C@H](N3CCCCCC3)[C@H]2OC/C=C\CCC(=O)O)cc1` (stereo not given in full), the Kb in test [1] and in test [2] was 0.0158 µM each time.
Regarding `NC(=O)Nc1ccccc1-c1ccc(COC2CC[C@H](N3CCCCCC3)[C@H]2OC/C=C\CCC(=O)O)cc1` (stereo not given in full), the results for the Kb in test [1] and in test [2] were 0.00794 µM and 0.0631 µM, respectively.
`O=C(O)CC/C=C\CO[C@H]1[C@@H](OCc2ccc(-c3ccccc3)cc2)CC[C@@H]1N1CCCCC1`: the Kb in test [1] was 0.01 µM and 0.00794 µM; in test [2], 0.0316 µM and 0.0501 µM.
In the case of `CC(=O)NCc1ccccc1-c1ccc(COC2CC[C@H](N3CCCCCC3)[C@H]2OC/C=C\CCC(=O)O)cc1` (stereo not given in full), the values for the Kb in test [1] and in test [2] were 0.0251 µM and 0.126 µM, respectively.
For `O=C(O)CC/C=C\CO[C@H]1[C@@H](OCc2ccc(-c3ccccc3)cc2)CC[C@@H]1N1CCCCCC1`, in that order: 0.00501 µM and 0.0398 µM.
Regarding `O=C(O)CC/C=C\CO[C@H]1C(OCc2ccc(-c3ccc(CO)cc3)cc2)CC[C@@H]1N1CCCCCC1` (stereo not given in full), the Kb in test [1] was 0.00316 µM; in test [2], 0.02 µM.

As a reminder, the pKb is the negative decadic logarithm of the Kb, by convention in mol/L.

(Values after ChEMBL document CHEMBL1125965, “Synthesis and pharmacological evaluation of novel Amino-prostanoids: potent and orally effective thromboxane A2 receptor antagonists” (Bioorg Med Chem Lett, 1991).)
